Laboratory results as given in patent publication US8003812B2, “C10 cyclopentyl ester substituted taxanes” (priority 2004, dated 2011).
Where “and” joins values, the source holds several entries; their conditions need not be identical. Equal values may be shown once. Read-outs that look alike come from different tables or passages of the source.

Key:
Sprague-Dawley rats [1] = test: In vivo toxicity assessment in rats, oral; parameters: species or system rat; key to Neu Tox score: N (0); −10: Y (1-4); key to PTL R (Recovery) score / L/W Dia score / B/M Dia score / BW R (Recovery) score / WBC R (Recovery) score: −5: N; 0: Y; conditions: oral; for L/W Dia score / Neu Tox score / WBC R (Recovery) score / WBC score / BUN score / BW R (Recovery) score / PTL R (Recovery) score / PTL score / ALT score / AST score / B/M Dia score / BW score: score per rat; for Total Score AVE: average of 3 rats; for Total Score: per rat, maximum 130; for Group score = average of 3 rats/13: scale 0 to 10
Protocol: (§1) Toxicity was assessed in 250-300g Sprague-Dawley rats and three rats were used per dose group. Three dose groups of the test compound, (i.e., 3 mg/kg, 9 mg/kg and 12 mg/kg for intravenous administration; 15 mg/kg, 30 mg/kg and 40 mg/kg) and 1 control group constituted a study. Animals were observed and clinical chemistry data collected at days 4 and 10. Rats were euthanized on day 11 and the nerves were excised and fixed upon euthanization for further examination.
(§2) Each rat is scored as described below and a final toxicity score that incorporates all parameters is assigned. A dead rat is assigned a score of zero. Most of the parameters contribute a positive value towards a total possible score of 130. For body weight, white blood cell, and platelet decreases, recovery is considered. […] The total score is divided by 13 to put it on a scale from 0 to 10.

Sprague-Dawley rats [2] = test: In vivo toxicity assessment in rats, intravenous
Protocol: as §1, §2

[3] = system: HT29 (human colon carcinoma) xenograft; conditions: for # Death NTR / # Death TR / MDS to 1.0 g ± SEM (n) / Efficacy Score = 10*(TWd1−TWdn)/TWd1: HT29; for # Death NTR / # Death TR: 6 mice; for Efficacy Score = 10*(TWd1−TWdn)/TWd1: best score 10; for Max. % BW Loss; Day: mouse, in vivo, po
Source text: Score=10*(TWd1−TWdn)/TWd1, where
TWd1=tumor weight on day 1
TWDn=lowest tumor weight on day 10 or later
Thus the best score for complete regression would be 10.

[4] = IV, second IV 9091 line (two IV dosage regimens)

In the case of `CC(=O)OC12COC1CC(O)C1(C)C(=O)C(OC(=O)C3CCCC3)C3=C(C)C(OC(=O)C(O)C(NC(=O)OC(C)C)c4cccs4)CC(O)(C(OC(=O)c4ccccc4)C21)C3(C)C` (stereo not drawn) [Compound 9091], the “L/W Dia score” value (Sprague-Dawley rats [1]; High Dose 40 mg/kg) is reported as 0, the “Neu Tox score” value (Sprague-Dawley rats [1]; High Dose 40 mg/kg) is reported as −10 and the “WBC R (Recovery) score” value (Sprague-Dawley rats [1]; High Dose 40 mg/kg) is reported as 0. For the same compound, the WBC score (Sprague-Dawley rats [1]; High Dose 40 mg/kg) was 0 (≧50%), the BUN score (Sprague-Dawley rats [1]; High Dose 40 mg/kg, 40 mg/kg) was 10 (≧1.25Xcont) and 20 (<1.25Xcont) (2×) and the “BW R (Recovery) score” value (Sprague-Dawley rats [1]; High Dose 40 mg/kg, 40 mg/kg) was 0 and −5 (2×). For the same compound, the “PTL R (Recovery) score” value (Sprague-Dawley rats [1]; High Dose 40 mg/kg, 40 mg/kg) was −5 and 0 (2×), the PTL score (Sprague-Dawley rats [1]; High Dose 40 mg/kg, 40 mg/kg) was 20 (<25%) (2×) and 5 (≧50%) and the “Total Score AVE” value (Sprague-Dawley rats [1]; Low Dose 15 mg/kg) was 96.7. The “Total Score” value (Sprague-Dawley rats [1]; Low Dose 15 mg/kg, 15 mg/kg) was 110 and 85 and 95, the “Group score = average of 3 rats/13” value (Sprague-Dawley rats [1]; Low Dose 15 mg/kg) was 7.44 and the ALT score (Sprague-Dawley rats [1]; Low Dose 15 mg/kg) was 20 (<1.25Xcont). For the same compound, the AST score (Sprague-Dawley rats [1]; Low Dose 15 mg/kg) was 20 (<1.25Xcont), the “B/M Dia score” value (Sprague-Dawley rats [1]; Low Dose 15 mg/kg) was 5 and the BUN score (Sprague-Dawley rats [1]; Low Dose 15 mg/kg) was 20 (<1.25Xcont). For the same compound, the “BW R (Recovery) score” value (Sprague-Dawley rats [1]; Low Dose 15 mg/kg) was 0, the “L/W Dia score” value (Sprague-Dawley rats [1]; Low Dose 15 mg/kg) was 0 and the “Neu Tox score” value (Sprague-Dawley rats [1]; Low Dose 15 mg/kg) was −10. The “PTL R (Recovery) score” value (Sprague-Dawley rats [1]; Low Dose 15 mg/kg) was 0, the “WBC R (Recovery) score” value (Sprague-Dawley rats [1]; Low Dose 15 mg/kg) was 0 and the BW score (Sprague-Dawley rats [1]; Low Dose 15 mg/kg, 15 mg/kg) was 20 (<10%) (2×) and 10 (≧10%). For the same compound, the PTL score (Sprague-Dawley rats [1]; Low Dose 15 mg/kg, 15 mg/kg) was 20 (<25%) (2×) and 10 (≧25%), the WBC score (Sprague-Dawley rats [1]; Low Dose 15 mg/kg, 15 mg/kg) was 5 (≧25%) and 0 (≧50%) (2×) and the “Total Score AVE” value (Sprague-Dawley rats [1]; Mid Dose 30 mg/kg) was 86.7. The “Total Score” value (Sprague-Dawley rats [1]; Mid Dose 30 mg/kg, 30 mg/kg) was 85 and 95 and 80, the “Group score = average of 3 rats/13” value (Sprague-Dawley rats [1]; Mid Dose 30 mg/kg) was 6.67 and the ALT score (Sprague-Dawley rats [1]; Mid Dose 30 mg/kg) was 20 (<1.25Xcont). The AST score (Sprague-Dawley rats [1]; Mid Dose 30 mg/kg) was 20 (<1.25Xcont), the “B/M Dia score” value (Sprague-Dawley rats [1]; Mid Dose 30 mg/kg) was 0 and the BUN score (Sprague-Dawley rats [1]; Mid Dose 30 mg/kg) was 20 (<1.25Xcont). For the same compound, the “BW R (Recovery) score” value (Sprague-Dawley rats [1]; Mid Dose 30 mg/kg) was 0, the “L/W Dia score” value (Sprague-Dawley rats [1]; Mid Dose 30 mg/kg) was 0 and the “Neu Tox score” value (Sprague-Dawley rats [1]; Mid Dose 30 mg/kg) was −10. For the same compound, the “PTL R (Recovery) score” value (Sprague-Dawley rats [1]; Mid Dose 30 mg/kg) was 0, the PTL score (Sprague-Dawley rats [1]; Mid Dose 30 mg/kg) was 20 (<25%) and the “WBC R (Recovery) score” value (Sprague-Dawley rats [1]; Mid Dose 30 mg/kg) was 0. The BW score (Sprague-Dawley rats [1]; Mid Dose 30 mg/kg, 30 mg/kg) was 5 (≧15%) and 10 (≧10%) (2×), the WBC score (Sprague-Dawley rats [1]; Mid Dose 30 mg/kg, 30 mg/kg) was 0 (≧50%) (2×) and 5 (≧25%) and the “Tox Score, Dose 3 mg” value (Sprague-Dawley rats [2]; IV, scale 0 to 10) was 9. For the same compound, the “Tox Score, Dose 3 mg” value (Sprague-Dawley rats [2]; [4]) was 9.5, the “Tox Score, Dose 9 mg” value (Sprague-Dawley rats [2]; IV, scale 0 to 10) was 7.1 and the “Tox Score, Dose 9 mg” value (Sprague-Dawley rats [2]; [4]) was 8.1. For the same compound, the “Tox Score, Dose 12 mg” value (Sprague-Dawley rats [2]; IV, scale 0 to 10) was 7.8, the “Tox Score, Dose 12 mg” value (Sprague-Dawley rats [2]; [4]) was 6.8 and the “Tox Score, Weighted Avg” value (Sprague-Dawley rats [2]; IV, Wt Avg = (Σ(dose × grp score))/24) was 7.7. The “Tox Score, Average” value (Sprague-Dawley rats [2]; IV, average of 3 dose groups) was 7.9, the “Tox Score, Average” value (Sprague-Dawley rats [2]; [4]) was 8.1 and the “Tox Score, Weighted Avg” value (Sprague-Dawley rats [2]; [4]) was 7.6. The “Rat tox score IV (second value in cell)” value (Sprague-Dawley rats [2]; IV, second of two values printed for 9091 (two IV regimens)) was 8, 8, the “Rat tox score IV” value (Sprague-Dawley rats [2]; IV, summary score, scale 0 to 10) was 8, 8 and the “toxicity profile in rats compared with congeners” value (Sprague-Dawley rats [2]; administered intravenously) was “best toxicity profile”. For the same compound, the “# Death NTR” value ([3]; Group 18: 15 mg/kg po q4d × 4) was 0, the “# Death TR” value ([3]; Group 18: 15 mg/kg po q4d × 4) was 0 and the “MDS to 1.0 g ± SEM (n)” value ([3]; Group 18: 15 mg/kg po q4d × 4, n=6) was 24.4 ± 1.4 (6). For the same compound, the “# Death NTR” value ([3]; Group 19: 30 mg/kg po q4d × 4) was 0, the “# Death TR” value ([3]; Group 19: 30 mg/kg po q4d × 4) was 0 and the “MDS to 1.0 g ± SEM (n)” value ([3]; Group 19: 30 mg/kg po q4d × 4, n=1) was 25.6 ± (1). For the same compound, the “# Death NTR” value ([3]; Group 20: 45 mg/kg po q4d × 4) was 0, the “# Death TR” value ([3]; Group 20: 45 mg/kg po q4d × 4) was 0 and the “# Death NTR” value ([3]; Group 21: 60 mg/kg po q4d × 4) was 0. For the same compound, the “# Death TR” value ([3]; Group 21: 60 mg/kg po q4d × 4) was 4, the “Efficacy Score = 10*(TWd1−TWdn)/TWd1” value ([3]; single dose oral 60 mg/kg) was 4.3 and the “Efficacy Score = 10*(TWd1−TWdn)/TWd1” value ([3]; single dose oral 120 mg/kg) was 8.7. The “Max. % BW Loss; Day” value ([3]; 30 mg/kg) was −11.3%;, the “Max. % BW Loss; Day” value ([3]; 45 mg/kg) was −22.6%; and the “Max. % BW Loss; Day” value ([3]; 60 mg/kg) was −28.1%;.
